Laboratory results: PubChem BioAssay AID2060362 (Molecular Pharmacology Branch, DTP, NCI, 2025)

System: 128128-338-R-J1-PDC spheroids, viability % test/control
Assay: Anticancer human tumor 128128-338-R-J1-PDC patient-derived melanoma cell line growth inhibition [TAK]
Details: spheroids with HUVEC and MSC; for IC50: curve of first compound; for viability, T/C: stronger effect = lower value
Summary of the method: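 Drug combinations, each paired with TAK-243 or ipatasertib, were tested on multi-cell spheroids of 60% malignant cells, 25% HUVEC and 15% hMSC. Top concentrations were at or near the clinical Cmax (10 microM if undetermined), decreasing by half-log; viability is given as % test/control.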
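Note: spheroids exposed to compounds for 7 days.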
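Throughout, for viability, T/C: 100% = DMSO vehicle wells.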

`CC(=O)Nc1cccc(-n2c(=O)n(C3CC3)c(=O)c3c(Nc4ccc(I)cc4F)n(C)c(=O)c(C)c32)c1` + CC(C)NCC(C(=O)N1CCN(c2ncnc3c2C(C)CC3O)CC1)c1ccc(Cl)cc1 was tested, and the IC50 (second compound 0.3 µM) was 1.62 nM, the IC50 (second compound 0.949 µM) was 1.76 nM and the IC50 (second compound 3 µM) was 1.25 nM. The IC50 (second compound 9.49 µM) was 0.348 nM, the IC50 (second compound 30 µM) was < 0.0949 nM and the viability, T/C (second compound 0.3 µM, first compound 94.9 pM) was 98.8%. The viability, T/C (second compound 0.3 µM, first compound 0.0003 µM) was 97.5%, the viability, T/C (second compound 0.3 µM, first compound 0.000949 µM) was 73.5% and the viability, T/C (second compound 0.3 µM, first compound 0.003 µM) was 22.7%. For the same molecule, the viability, T/C (second compound 0.3 µM, first compound 0.00949 µM) was 2.28%, the viability, T/C (second compound 0.3 µM, first compound 0.03 µM) was 1.04% and the viability, T/C (second compound 0.949 µM, first compound 94.9 pM) was 100%. The viability, T/C (second compound 0.949 µM, first compound 0.0003 µM) was 94%, the viability, T/C (second compound 0.949 µM, first compound 0.000949 µM) was 77.8% and the viability, T/C (second compound 0.949 µM, first compound 0.003 µM) was 26.2%. The viability, T/C (second compound 0.949 µM, first compound 0.00949 µM) was 1.76%, the viability, T/C (second compound 0.949 µM, first compound 0.03 µM) was 0.37% and the viability, T/C (second compound 3 µM, first compound 94.9 pM) was 87.3%. The viability, T/C (second compound 3 µM, first compound 0.0003 µM) was 82.8%, the viability, T/C (second compound 3 µM, first compound 0.000949 µM) was 61.9% and the viability, T/C (second compound 3 µM, first compound 0.003 µM) was 12.6%. For the same molecule, the viability, T/C (second compound 3 µM, first compound 0.00949 µM) was 0.36%, the viability, T/C (second compound 3 µM, first compound 0.03 µM) was 0.28% and the viability, T/C (second compound 9.49 µM, first compound 94.9 pM) was 63.9%. The viability, T/C (second compound 9.49 µM, first compound 0.0003 µM) was 55%, the viability, T/C (second compound 9.49 µM, first compound 0.000949 µM) was 16.2% and the viability, T/C (second compound 9.49 µM, first compound 0.003 µM) was 0.75%. The viability, T/C (second compound 9.49 µM, first compound 0.00949 µM) was 0.11%, the viability, T/C (second compound 9.49 µM, first compound 0.03 µM) was 0.09% and the viability, T/C (second compound 30 µM, first compound 94.9 pM) was 20.5%. It also gave a viability, T/C (second compound 30 µM, first compound 0.0003 µM) of 10.1%, a viability, T/C (second compound 30 µM, first compound 0.000949 µM) of 0.5% and a viability, T/C (second compound 30 µM, first compound 0.003 µM) of 0.25%. For the same molecule, the viability, T/C (second compound 30 µM, first compound 0.00949 µM) was 0.1% and the viability, T/C (second compound 30 µM, first compound 0.03 µM) was 0.12%.
Work on `CC(C)CC(NC(=O)CNC(=O)c1cc(Cl)ccc1Cl)B1OC(=O)CC(CC(=O)O)(C(=O)O)O1` (stereo not given) + CC(C)NCC(C(=O)N1CCN(c2ncnc3c2C(C)CC3O)CC1)c1ccc(Cl)cc1 yielded an IC50 (second compound 0.3 µM) of 8.01 nM, an IC50 (second compound 0.949 µM) of 7.78 nM and an IC50 (second compound 3 µM) of 5.61 nM. The IC50 (second compound 9.49 µM) was 4.79 nM, the IC50 (second compound 30 µM) was < 0.316 nM and the viability, T/C (second compound 0.3 µM, first compound 0.000316 µM) was 97.4%. It also gave a viability, T/C (second compound 0.3 µM, first compound 0.001 µM) of 100%, a viability, T/C (second compound 0.3 µM, first compound 0.00316 µM) of 102% and a viability, T/C (second compound 0.3 µM, first compound 0.01 µM) of 38.1%. The viability, T/C (second compound 0.3 µM, first compound 0.0316 µM) was 2.27%, the viability, T/C (second compound 0.3 µM, first compound 0.1 µM) was 0.15% and the viability, T/C (second compound 0.949 µM, first compound 0.000316 µM) was 98.6%. For the same molecule, the viability, T/C (second compound 0.949 µM, first compound 0.001 µM) was 101%, the viability, T/C (second compound 0.949 µM, first compound 0.00316 µM) was 93% and the viability, T/C (second compound 0.949 µM, first compound 0.01 µM) was 38%. For the same molecule, the viability, T/C (second compound 0.949 µM, first compound 0.0316 µM) was 1.94%, the viability, T/C (second compound 0.949 µM, first compound 0.1 µM) was 0.09% and the viability, T/C (second compound 3 µM, first compound 0.000316 µM) was 85.3%. It also gave a viability, T/C (second compound 3 µM, first compound 0.001 µM) of 94.1%, a viability, T/C (second compound 3 µM, first compound 0.00316 µM) of 82.7% and a viability, T/C (second compound 3 µM, first compound 0.01 µM) of 16.9%. For the same molecule, the viability, T/C (second compound 3 µM, first compound 0.0316 µM) was 1.1%, the viability, T/C (second compound 3 µM, first compound 0.1 µM) was 0.08% and the viability, T/C (second compound 9.49 µM, first compound 0.000316 µM) was 71%. The viability, T/C (second compound 9.49 µM, first compound 0.001 µM) was 68.7%, the viability, T/C (second compound 9.49 µM, first compound 0.00316 µM) was 65.1% and the viability, T/C (second compound 9.49 µM, first compound 0.01 µM) was 23.2%. For the same molecule, the viability, T/C (second compound 9.49 µM, first compound 0.0316 µM) was 0.49%, the viability, T/C (second compound 9.49 µM, first compound 0.1 µM) was 0.09% and the viability, T/C (second compound 30 µM, first compound 0.000316 µM) was 21.9%. It also gave a viability, T/C (second compound 30 µM, first compound 0.001 µM) of 22.4%, a viability, T/C (second compound 30 µM, first compound 0.00316 µM) of 23.8% and a viability, T/C (second compound 30 µM, first compound 0.01 µM) of 3.46%. The viability, T/C (second compound 30 µM, first compound 0.0316 µM) was 0.13% and the viability, T/C (second compound 30 µM, first compound 0.1 µM) was 0.12%.
`CCCS(=O)(=O)Nc1ccc(F)c(C(=O)c2c[nH]c3ncc(-c4ccc(Cl)cc4)cc23)c1F` + CC(C)NCC(C(=O)N1CCN(c2ncnc3c2C(C)CC3O)CC1)c1ccc(Cl)cc1 showed an IC50 (second compound 0.3 µM) of 1070 nM, an IC50 (second compound 0.949 µM) of 1110 nM and an IC50 (second compound 3 µM) of 462 nM. The IC50 (second compound 9.49 µM) was < 316 nM, the IC50 (second compound 30 µM) was < 316 nM and the viability, T/C (second compound 0.3 µM, first compound 0.316 µM) was 82.5%. For the same molecule, the viability, T/C (second compound 0.3 µM, first compound 1 µM) was 52.1%, the viability, T/C (second compound 0.3 µM, first compound 3.16 µM) was 12.2% and the viability, T/C (second compound 0.3 µM, first compound 10 µM) was 0.57%. The viability, T/C (second compound 0.3 µM, first compound 31.6 µM) was 0.08%, the viability, T/C (second compound 0.3 µM, first compound 100 µM) was 0.68% and the viability, T/C (second compound 0.949 µM, first compound 0.316 µM) was 74.3%. It also gave a viability, T/C (second compound 0.949 µM, first compound 1 µM) of 54.4%, a viability, T/C (second compound 0.949 µM, first compound 3.16 µM) of 7.73% and a viability, T/C (second compound 0.949 µM, first compound 10 µM) of 0.33%. It also gave a viability, T/C (second compound 0.949 µM, first compound 31.6 µM) of 0.08%, a viability, T/C (second compound 0.949 µM, first compound 100 µM) of 0.4% and a viability, T/C (second compound 3 µM, first compound 0.316 µM) of 63.9%. It also gave a viability, T/C (second compound 3 µM, first compound 1 µM) of 22.1%, a viability, T/C (second compound 3 µM, first compound 3.16 µM) of 1.94% and a viability, T/C (second compound 3 µM, first compound 10 µM) of 0.06%. For the same molecule, the viability, T/C (second compound 3 µM, first compound 31.6 µM) was 0.03%, the viability, T/C (second compound 3 µM, first compound 100 µM) was 0.24% and the viability, T/C (second compound 9.49 µM, first compound 0.316 µM) was 30.6%. It also gave a viability, T/C (second compound 9.49 µM, first compound 1 µM) of 9.75%, a viability, T/C (second compound 9.49 µM, first compound 3.16 µM) of 0.65% and a viability, T/C (second compound 9.49 µM, first compound 10 µM) of 0.02%. It also gave a viability, T/C (second compound 9.49 µM, first compound 31.6 µM) of 0.03%, a viability, T/C (second compound 9.49 µM, first compound 100 µM) of 0.11% and a viability, T/C (second compound 30 µM, first compound 0.316 µM) of 2.32%. The viability, T/C (second compound 30 µM, first compound 1 µM) was 0.63%, the viability, T/C (second compound 30 µM, first compound 3.16 µM) was 0.12% and the viability, T/C (second compound 30 µM, first compound 10 µM) was 0.07%. For the same molecule, the viability, T/C (second compound 30 µM, first compound 31.6 µM) was 0.08% and the viability, T/C (second compound 30 µM, first compound 100 µM) was 0.12%.
